Where two headings read alike, the source gives them in different places.
Key:
[1] = system: H9-cells infected with HTLV-III; experiment: Growth of HTLV-III infected H9 cells; assay type: cell-based, human; conditions: for Cell Concentration: infected H9 cells, four days, controls infected 0.5, uninfected 1.3
Experimental: For this, the H9 cell line was used, it consisting of a cloned OKT4+ T-cell line in which the AIDS virus propagates (M. Popovic, M. G. Sarngadharan, E. Reed and R. C. Gallo; Science 224, 497-500 (1984)).
H9-cells (M. Popovic, M. G. Sarngadharan, E. Reed, R. C. Gallo, Science: 224, 1984, 497-500) were treated with Polybren® (hexadimethrinbromide available on the market; 2 μg/ml) for 30 minutes at 37° C., washed free of Polybren and infected with 2×10^8 HTLV-III virus particles (isolated from H9 cell cultures by the method of M. Popovic; see above) per 4×10^5 H9 cells. Some assays which were not treated with drugs were used as positive controls, while different concentrations of the compound to be tested (avarone or avarol and their derivatives) were added to the test samples. The HTLV-III reverse transcriptase activity of these cultures was analyzed in the manner described above.
H9-cells as well as H9-cells infected with HTLV-III were used in a concentration of 0.2×10^6 cells/ml of culture medium for the inoculating of a culture medium. After incubation for four days, the density of the H9-cells was 1.3×10^6 cells/ml, while the density of the H9-cells infected with HTLV-III was only 0.5×10^6 cells/ml; these two values formed the control values.
Thereupon samples of H9-HTLV-III cells, 0.2×10^6 cells/ml, were treated for four days with different concentrations of avarol.

[2] = system: L5178y mouse lymphoma cells; experiment: L5178y cell growth; assay type: cell-based; conditions: 72 hours
Experimental: mouse lymphoma cells were grown in roller tube cultures in Eagle's minimum essential medium, supplemented with 10% horse serum (Muller et al., Cancer Res. 39: 1102-1107; 1979 and Muller et al. Cancer Res. 45: 4822-4826; 1985). […] The cell growth was determined by cell count with a computer supported cell-counter (128-channel counter; Cytocomp, system Michaelis: BIOTRON-Medizinelektronik, Mainz; West Germany). The ED50 (±SD) was estimated by logit regression (L. Sachs, […], Springer-Verlag, Berlin 1984). The mathematical evaluation of the fractional inhibitory concentration indices (FIC indices) of Avarol/Avarone-DDC combinations was performed according to published equations and experimental conditions (Muller et al., Cancer Lett. 1: 127-132; 1976; and Phillips et al., Antimicrob. Agents Chemother. 9: 736-740, 1976). […] In this set of experiments, […] cells were incubated with Avarol in the absence or presence of the established SODase inhibitor DDC.

Lethal dose in rats = conditions: rat, in vivo; male Sprague-Dawley rats, treatment for 5 days; read-out: 50% lethal dose
Experimental: From previous experiments with NMRI mice, bearing L5178y cells, it is known that the chemotherapeutical dose of avarol is in the range of 1-50 mg/kg at a 50% lethal dose of 269.1 mg/kg (Muller et al., Cancer Res. 45: 4822-4826; 1985). The 50% lethal dose (treatment for 5 days) for male Sprague-Dawley rats was determined to be 235.7 mg/kg. Therefore, daily doses of avarol of 1-30 mg/kg/injection were chosen for the following in vivo studies.

[3] = system: DTH to sheep red blood cells (SRBC) in NMRI mice; experiment: Delayed-type hypersensitivity to sheep red blood cells; assay type: in vivo, mouse
Experimental: DTH was produced according to the method of Lagrange et al. (J. Exp. Med. 139: 528-542; 1974) and Liew (Eur. J. Immunol. 7, 714-718; 1977). Male NMRI mice (20-23 g, 10 animals/group) were immunized with 10^8 SRBC/40 μl into one foot pad (day 0). Four days later 10^9 SRBC/40 μl were injected into the other foot pad. After 24 hours, paw size was measured with a dial gauge caliper Odi-Test OOT (H. C. Kroeplin, Schluchtern, Germany). Avarol (in 0.15% [w/v] methylcellulose) was administered daily i.p. either from day -2 to +1 or from day +2 to +4. The level of DTH was expressed as foot pad increase, determined after 24 hrs; and it is given in mm. Non-treated groups were injected i.p. with methylcellulose only. Treated groups were compared with the controls using the U-test of Wilcoxon et al. (Sachs, L. Angewandte Statistik, Springer-Verlag, Berlin; 1984).

[4] = system: DTH to oxazolone in NMRI mice; experiment: Contact allergy to oxazolone; assay type: in vivo, mouse; conditions: 3-30 mg/kg i.p., day -1 to +2 or day +6 to +8, P>0.05
Experimental: Allergic contact dermatitis against oxazolone was produced according to the method of Asherson and Ptak (Immunol. 15: 405-416; 1968) as well as those of Bure and Degrand (Agents and Actions 9: 534; 1979). Male NMRI mice (20-22 g; 10/group) were sensitized with 100 μl of a 2% oxazolone in acetone solution onto the shaved abdomen (day 0). Animals were treated with avarol (i.p.) daily from day -1 to +2 or from day +6 to +8; control group was treated with deoxymethasone (Casella-Hoechst) as a standard per os at a daily dose of 30 mg/kg for the same period of time as for avarol. Seven days after sensitization 10 μl of a 3% oxazolane (this concentration was previously found to give more reproducible results than the lower 2% concentration) solution were topically applied onto the inner side of one ear, whereas the other ear received only acetone. […] Treated groups were compared with controls using the U-test.

lymphocyte cultures = experiment: [^3 H]-dThd incorporation in lymphocyte cultures from avarol-pretreated mice; assay type: cell-based, mouse; conditions: pretreatment of mice; macrophage-containing and macrophage-depleted cultures
Source text: The effect of avarol on the lymphoid system was studied both in vitro and in vivo. […] The stimulatory influence of avarol on humoral immune responses is not accompanied by a change of the antibody-mediated hypersensitivity reaction, as measured by the Arthus reaction. No significant influence of avarol on the cellular immune system in vivo (rats or mice) was found, as taken from studies on delayed-type hypersensitivity reactions to sheep red blood cells and to oxazolone.

normal T-lymphocytes = conditions: cited from earlier work
normal B-lymphocytes = conditions: cited from earlier work
herpes simplex virus = conditions: in vitro, cultures of herpes simplex virus; cited from earlier work

Compound: CC1=CCC[C@H]2[C@](C)(Cc3cc(O)ccc3O)[C@@H](C)CC[C@]12C [Avarol, 2-[(1R)-1,2,3,4,4a,7,8,8aα-octahydro-1β,2β,4aβ,5-tetramethyl-1-naphthylmethyl]-1,4-benzenediol]
- growth rate of H9-HTLV-III cells ([1]; about 0.01 μg/ml): increase the growth rate of H9-HTLV-III cells to values which lie within the range of the control
- Cell Concentration ([1]; 0.1 μg/ml): 1.42e+06 mL⁻¹
- Cell Concentration ([1]; 1 μg/ml): 1.09e+06 mL⁻¹
- IC50 ([2]; DDC 1.46 μM, read-out: ED50 with coaddition of DDC): 270 ± 40 nM
- IC50 ([2]; DDC 1.71 μM, read-out: ED50 with coaddition of DDC): 108 ± 15 nM
- IC50 ([2]; Mus musculus, L5178Y, cell growth, absence of DDC, read-out: ED50 (the source's name)): 940 ± 140 nM
- LD50 at 120 h (Lethal dose in rats): 236 mg/kg
- DTH to SRBC, immunosuppressive influence ([3]; day +2 to +4, doses higher than 10 mg/kg i.p.): weak but significant immunosuppressive effect
- DTH to SRBC, immunosuppressive influence ([3]; day -2 to +1, up to daily doses of 30 mg/kg i.p.): no significant immunosuppressive influence
- influence on DTH to oxazolone, in words [4]: did not influence significantly
- [^3 H]-dThd incorporation rate, in words (lymphocyte cultures): higher [^3 H]-dThd incorporation rate
- concentration inhibiting [^3 H] dThd-incorporation rate by 50% (normal T-lymphocytes): 0.5 to 1.3 µg/mL
- concentration inhibiting [^3 H] dThd-incorporation rate by 50% (normal B-lymphocytes): 1.6 to 1.9 µg/mL
- virostatic action (herpes simplex virus): certain virostatic action in vitro

— patent US4939177A, “Use of avarol for the control of AIDS and ARC” (Merz + Co. GmbH & Co., priority 1986, dated 1990)
